{"source": "paper PMC3880581", "about": "(Nature, 2012)", "target": "AtCHI (Arabidopsis thaliana, UniProt P41088)", "sequence (P41088 whole entry)": "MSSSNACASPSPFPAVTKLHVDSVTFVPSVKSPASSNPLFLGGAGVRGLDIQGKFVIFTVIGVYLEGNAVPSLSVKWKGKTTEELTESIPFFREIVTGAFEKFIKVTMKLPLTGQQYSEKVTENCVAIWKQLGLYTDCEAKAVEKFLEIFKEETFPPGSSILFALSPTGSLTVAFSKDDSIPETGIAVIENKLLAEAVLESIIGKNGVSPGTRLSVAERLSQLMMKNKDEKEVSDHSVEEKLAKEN", "conditions": "cyclization of the chalcone; constant not given", "data": [{"smiles": "O=C1C[C@@H](c2ccc(O)cc2)Oc2cc(O)cc(O)c21", "note": "[(2S)-naringenin]", "values": [{"measurement": "CHI activity assay", "result": "AtCHI catalyzes the in vitro formation of (2S)-naringenin"}]}]}
